Measured values published in paper PMC6630837 (Pharmaceuticals, 2019).
“Also recorded” adds a separate entry of the source.

Assays:
[1] = system: SH-SY5Y human neuroblastoma cells; assay: Neuroprotection against Aβ1-42-induced toxicity, MTT cell viability assay; assay type: cell-based; conditions: 50 μM compound, 20 μM Aβ1-42, 24 h, 37 °C
Experimental: Neuroprotective activity assays against Aβ1-42-induced toxicity. From all compounds tested in the above presented assay, the pair 8 and 19 presented the strongest neuroprotective potential, with convincing proof on the importance of the aglycone for the desired neuroprotective effects against H2O2-induced cell injury. […] Here, the MTT assay was used once again to assess cell viability of SH-SY5Y cells treated with 20 μM of Aβ1-42, in the presence of 50 μM of each compound. Similar protocols have been used to screen candidates for AD therapy. Moreover, based on the existing evidence that in situ spontaneous fibrillization of Aβ1-42 in the incubation mixture is important in the triggering of neurotoxic effects, we added the Aβ1-42 peptide fragment dissolved in DMSO to the culture medium prior to incubation, together with each compound in study. […] Even though there is published evidence that undifferentiated SH-SY5Y cells are not as sensitive to Aβ1-42-induced neurite degeneration and apoptosis as differentiated ones, with 20 μM of Aβ1-42 we were able to observe a significant decrease in cellular MTT reduction capacity, corresponding to roughly half of the cell viability rates observed in the non-treated control.
Neuroprotective assays in human neuroblastoma (SH-SY5Y) cells. […] Differences were considered significant when P < 0.05.

[2] = system: SH-SY5Y neuroblastoma cells; assay: Cytotoxic activity of compounds alone, MTT cell viability assay; conditions: 50 μM compound alone, 24 h, 37 °C, 0.5% DMSO, SH-SY5Y
Experimental: Neuroprotective assays in human neuroblastoma (SH-SY5Y) cells. SH-SY5Y cells were grown in Dulbecco’s Modified Eagle Medium (DMEM, Gibco, Life Technologies) supplemented with 10% fetal bovine serum (FBS, Biochrom GmbH) and 1% Penicillin-Streptomycin (Gibco, Life Technologies) in a humidified incubator at 37 °C, 5% CO2. For the neuroprotective activity assay, undifferentiated SGSY-5Y cells were plated onto 96-well flat-bottomed microtiter plates at a density of 1 × 10^4 cells/well in DMEM supplemented with 2% FBS and preincubated for 24 h at 37 °C, 5% CO2. Compounds (stored as 10 mM solutions in DMSO at −20 °C) were then added to achieve a final concentration of 50 μM and, after 30 min, cells were incubated in the presence or absence of 20 μM Aβ protein fragment 1-42 (Sigma-Aldrich, dissolved in DMSO and stored in 2 mM aliquots at −20 °C) or 100 μM of H2O2 (Sigma-Aldrich, dissolved to 10 mM in 0.9% NaCl aqueous solution immediately prior to the assay) overnight at 37 °C, 5% CO2. […] The following morning, 20 μL of a 5 mg/mL solution of 3-(4,5-dimethylthiazol-2-yl)-2,5-diphenyltetrazolium bromide (MTT, Sigma-Aldrich) in PBS (Gibco, Life Technologies) was added to each well and the plates were further incubated for 4 h at 37 °C, followed by the addition of DMSO (200 μL) to each well in order to dissolve the resulting formazan crystals. After 2 h incubating at 37 °C, the optical density (OD) at 540 nm (with a 620 nm reference filter) was measured in an Amersham Biosciences Biotrak II Plate Reader. The percentage of MTT reduction was determined according to Equation (1). […] Differences between experimental conditions were compared for statistical significance by one-way ANOVA followed by a Tukey’s post-test, an analysis carried out using GraphPad Prism Software (LA Jolla, CA, USA). Differences were considered significant when P < 0.05. In order to exclude direct MTT reduction, compounds were also tested in (a) the absence of cells and (b) in the absence of both cells and culture medium, using the same experimental conditions described above. (2) MTT Reduction (% of Control)=[ODsample−ODmedium/ODcell control−ODmedium] × 100 […]
Tabl e S2. Cytotoxic activity of each compound assessed in SH-SY5Y neuroblastoma cells via an MTT cell viability assay.a Comp ound Nr. MTT reduction (% control) p-va l u e vs . untreated cell control (unpai red t-t es t) […]
a Cells were incubated for 24 h at 37 °C, in the presence (50 μM) or absence of each compound.

[3] = target: acetylcholinesterase (AChE) (Electrophorus electricus, UniProt O42275); assay: Acetylcholinesterase inhibition, Ellman's colorimetric assay; assay type: biochemical; conditions: 100 µM compound; read-out: AChE inhibitory efficacy (percentage of inhibition)
Chain of acetylcholinesterase (AChE) (O42275 24-633): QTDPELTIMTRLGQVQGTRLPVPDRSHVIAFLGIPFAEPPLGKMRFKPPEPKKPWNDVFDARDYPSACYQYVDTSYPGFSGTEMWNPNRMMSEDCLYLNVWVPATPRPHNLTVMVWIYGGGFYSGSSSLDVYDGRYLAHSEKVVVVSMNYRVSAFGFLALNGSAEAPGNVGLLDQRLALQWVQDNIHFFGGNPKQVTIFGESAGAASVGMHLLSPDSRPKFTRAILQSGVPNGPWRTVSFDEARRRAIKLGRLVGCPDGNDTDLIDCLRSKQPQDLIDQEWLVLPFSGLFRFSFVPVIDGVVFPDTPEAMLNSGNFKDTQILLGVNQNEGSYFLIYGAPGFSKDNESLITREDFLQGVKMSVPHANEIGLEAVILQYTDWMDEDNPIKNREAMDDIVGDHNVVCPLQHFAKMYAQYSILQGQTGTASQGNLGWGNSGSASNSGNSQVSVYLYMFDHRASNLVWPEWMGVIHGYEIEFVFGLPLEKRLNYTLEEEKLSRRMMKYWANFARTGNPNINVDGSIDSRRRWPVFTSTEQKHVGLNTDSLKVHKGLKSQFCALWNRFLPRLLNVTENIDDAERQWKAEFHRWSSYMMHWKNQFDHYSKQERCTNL
Experimental: For cholinesterase inhibition tests (acetylcholinesterase (AChE, electrophorus
was kept within 1.25% cuvette concentration.
AChE and at 18.2 µM concentration for BuChE. […]

[4] = Cell viability (MTT) assay in HepG2 cells; assay type: cell-based, human; conditions: human; HepG2 cells, 0.1 μM to 100 μM; read-out: IC50 (cytotoxicity)
Experimental: (§1) Cell viability assay in human epithelial colorectal adenocarcinoma (Caco-2) and human liver hepatocellular (HepG2) cells. Caco-2 and HepG2 Cells were cultured in DMEM-Dulbecco’s modified Eagle’s medium (Sigma-Aldrich) supplemented with 10% (v/v) inactivated fetal bovine serum (PAA Laboratories GmbH), 2 mM L-glutamine (Sigma-Aldrich), 100 U/mL penicillin and 100 μg/mL streptomycin (Sigma-Aldrich), in a humidified incubator at 37 °C with a 5% CO2 atmosphere. Cells (3 × 10^4 cells/well) were seeded into 96-well plates and incubated at 37 °C in 5% CO2 atmosphere. After 24 h, compounds were added at different concentrations (0.1–100 μM) and incubated in the same conditions. DMSO controls were performed to evaluate a possible solvent cytotoxicity, while pure DMSO was used as a cytotoxic drug. After the established incubation time with compounds, MTT (5 mg/mL) in PBS (Sigma-Aldrich) was added (10 μL) to each well. After 3 h incubation at 37 °C, in 5% CO2, the supernatant was removed. The formazan crystals were solubilized using ethanol/DMSO (1:1) (100 μL), and the absorbance values were determined at 570 nm on the microplate reader Victor3 from PerkinElmer Life Sciences.

[5] = system: human liver hepatocellular (HepG2) cells; assay: Cell viability (MTT) assay in HepG2 cells; assay type: cell-based; conditions: at 100 μM
Experimental: as §1

O=c1cc(-c2ccc(N3CCOCC3)cc2)oc2c([C@@H]3O[C@H](CO)[C@@H](O)[C@H](O)[C@H]3O)c(O)cc(O)c12 [Compound 19, 8-(β-D-Glucopyranosyl)-5,7-dihydroxy-4′-(morpholin-4-yl)flavone]
Neuroprotective effect against Aβ1-42-induced toxicity (MTT cell viability) [1]: the result with the highest significance when compared to controls; also recorded: the result with the highest significance when compared to the controls
Neuroprotective effect against Aβ1-42-induced toxicity (MTT cell viability) ([1]; listed as 37): fully rescued
MTT reduction (% control) [2]: 138.5 ± 3.6%
inhibition at 100 µM [3]: 18%
IC50 [4]: ≥ 100 µM
Cytotoxicity towards HepG2 cells [5]: did not show any cytotoxicity
